Results reported in US20040028744A1, “Mucoadhesive composition” (priority 2002, published 2004).

Assay: Solubility of benzocaine in ethyl alcohol with and without menthol
Assay type: physicochemical
From the text: While not wishing to be bound to any theory, it appears that, in embodiments containing the medicament, for example benzocaine, menthol improves the clarity of the composition by increasing the solubility of medicament in the gel composition. This belief is based on the observation that the solubility of benzocaine in ethyl alcohol containing menthol is higher than the solubility of benzocaine in ethyl alcohol without menthol. It is believed that menthol can enhance the interaction between polymethacrylate, such as Eudragit™ RS, and a medicament, such as benzocaine. This belief is based on an interaction study conducted with a Differential Scanning Calorimeter (DSC). Further, while not wishing to be bound to any theory, it appears that one or both of the polymers may be forming a complex with the medicament drug in the presence of menthol and enhancing the clarity of the composition.

solubility of benzocaine in ethyl alcohol containing menthol versus without menthol: higher
Compound: CCOC(=O)c1ccc(N)cc1 [benzocaine]
